Holding throughout (type): in vivo, pig
One data set has as its system reduced glutathione. Kind of data set: Effect of abscisic acid on increasing production of reduced glutathione in small intestine of gilts. From the text: Twelve (12) of gilts at an age of 8 months were employed in this test. The S-ABA (particle size of 0.1 to 1 mm) in the amounts as shown in Table 11 was supplemented in the feed for about 40 days from the day of artificial insemination.
• (i) Clinical symptoms: observed daily. • (ii) Sampling of intestinal tracts: The pig was dissected on the 40th day of pregnancy, and the small intestine was sampled.
The measurement results of reduced glutathione in a small intestine after the administration for about 40 days are shown in Table 12. Using a commercially available glutathione measuring kit (manufactured by DOJINDO CHEMICALS Inc.; […]), the reduced glutathione contained in 1 g of small intestine tissue was determined quantitatively.

Data set [1] in a line: Effect of abscisic acid on reducing productivity decrease due to heat stress in young pigs. The settings on record: for Feed Conversion Rate (Feed Intake/Body Weight Gain, Average value) / Feed Intake (Average value) / Body Weight Gain (Average value): high temperature (30.6° C.), young pigs; for Body Weight Gain (Average value): age 35 to 70 days. The procedure: Eighty four (84) of crossbred young pigs (LWD) at an age of 28 days were employed in this test. Body weight of the each young pigs was measured and seven animals were assigned to one section considering the average body weight across the sections was equal, and the three sections (replicates) were assigned to a total four test groups. The test period was from 28 to 70 day-old, and S-abscisic acid was used as a test substance. The S-ABA was added to the feed at the concentrations shown in the Table 6, and the feed containing S-ABA was fed daily to the pigs at the age of 28 to 70 days. The high temperature environment was carried out from the age of 36 to 70 days of the pigs.
The following four groups were set. Three sections (repetitions) per one group was set, which were assigned to each test group as indicated in the below Table.
The pigs were raised at the optimal temperature from the age of 28 to 35 day-old. After the age of 36 days the pigs of the Test group 1 were housed at an optimal temperature and the pigs of the Test groups 2 to 4 were exposed to a particular high temperature by air conditioner. The raising temperature were measured with a thermo-hygrometer or a data logger which was installed near the center of the raising room, and then recorded. The average room temperature of the optimal temperature group was 26.1° C., and the average room temperature of the […] temperature group was 30.6° C.
As a feed, similarly to the test example 1, an early feed, middle feed or late feed of MAMACOLO which was manufactured by FEED ONE CO., LTD. (2-6, Higashifukasiba Kamisu-shi, Ibaraki) was given by ad libitum feeding. A drinking water was freely ingested by a waterer with a picker. The early feed was given until the age of 35 days of the pig, the middle feed was given at the age of from 36 days to 42 days, and the late feed was given at the age of post 43 days.
• (i) Clinical symptoms: observed daily. • (ii) Body weight: Body weight was measured for each individual at the age of 28, 35 and 70 days old, and the average weight gain per a section from the age of 35 to 70 days during the test period was calculated. • (iii) Feed intake: Feed intake was measured daily by each section, and feed intake for one animal per a week was calculated. Also, feed conversion rate (feed intake/body weight gain) was calculated from “Average feed intake” and “Average body weight gain per section” during the test period.

Data set [2] can be described thus: Effect of abscisic acid on reducing productivity decrease due to cold stress in young pigs. The settings on record: for Feed Conversion Rate (Feed Intake/Body Weight Gain, Average value) / Feed Intake (Average value) / Body Weight Gain (Average value): low temperature (20.4° C.), young pigs; for Body Weight Gain (Average value): age 35 to 70 days. How it is done: Eighty four (84) crossbred young pigs (LWD) at an age of 28 days were employed in this test. Body weight of the each young pigs was measured and seven animals were assigned to one section considering the average body weight across the sections was equal, and the three sections (replicates) were assigned to a total four test groups. The test period was from 28 to 70 day-old, and S-abscisic acid was (hereinafter, referred to as “S-ABA”) used as a test substance. The S-ABA was added to the feed at the concentrations shown in Table 1, and the feed containing S-ABA was fed daily to the pigs at the age of 28 to 70 days. The low temperature environment was carried out from the age of 36 to 70 days of the pigs.
The following four groups were set.
The pigs were raised at the optimal temperature from the age of 28 to 35 day-old. After the age of 36 days, the pigs of the Test group 1 were housed at an optimal temperature and the pigs of the Test groups 2 to 4 were exposed to a particular low temperature by air conditioner. The raising temperature were measured with a thermo-hygrometer or a data logger which was installed near the center of the raising room, and then recorded. The average room temperature of the optimal temperature group was 26.1° C., and the average room temperature of the low temperature group was 20.4° C.
As a feed, an early feed, middle feed or late feed of MAMACOLO which was manufactured by FEED ONE CO., LTD. (2-6, Higashifukasiba Kamisu-shi, Ibaraki) was given by ad libitum feeding. A drinking water was freely ingested by a waterer with a picker. The early feed was given until the age of 35 days of the pig, the middle feed was given at the age of from 36 days to 42 days, and the late feed was given at the age of post 43 days.
• (i) Clinical symptoms: observed daily. • (ii) Body weight: Body weight was measured for each individual at the age of 28, 35 and 70 days old, and the average weight gain per a section from the age of 35 to 70 days during the test period was calculated. • (iii) Feed intake: Feed intake was measured daily for each section, and feed intake for one animal per a week was calculated. Also, feed conversion rate (feed intake/body weight gain) was calculated from “Average feed intake” and “Average body weight gain per section” during the test period.

With `CC1=CC(=O)CC(C)(C)[C@@]1(O)/C=C/C(C)=C\C(=O)O` [ABA, (S)-(+)-abscisic acid], the “Reduced glutathione in small intestine tissue compared to the no dosing S-ABA group” value in the data set on reduced glutathione (10 ppm S-ABA in feed for about 40 days) is “increased amount of reduced glutathione in small intestine tissue significantly”. The “Reduced glutathione Amount” value in the data set with reduced glutathione (10 ppm S-ABA in feed for about 40 days from artificial insemination, small intestine tissue) was 0.234 μmol/g wet tissue. The Clinical symptoms entry is given as “No abnormality was seen” with reduced glutathione (10 ppm S-ABA in feed for about 40 days, observed daily); “No abnormality was seen” in data set [1] (0.1, 0.5 or 1 ppm in feed, age 28 to 70 days, observed daily, high temperature); “No abnormality was seen” in data set [2] (0.1, 0.5 or 1 ppm in feed, age 28 to 70 days, observed daily, low temperature). Besides, the “Feed Conversion Rate (Feed Intake/Body Weight Gain, Average value)” value came to 4.54 in data set [1] (0.1 ppm ABA in feed); 4.25 in data set [1] (0.5 ppm ABA in feed); 3.91 in data set [1] (1.0 ppm ABA in feed); 4.40 in data set [2] (0.1 ppm ABA in feed); 4.29 in data set [2] (0.5 ppm ABA in feed); 4.41 in data set [2] (1.0 ppm ABA in feed). Besides, the “Feed Intake (Average value)” value in data set [1] (0.1 ppm ABA in feed) is 30.7 kg; in data set [1] (0.5 ppm ABA in feed), 29.7 kg; in data set [1] (1.0 ppm ABA in feed), 32.9 kg; in data set [2] (0.1 ppm ABA in feed), 29.81 kg; in data set [2] (0.5 ppm ABA in feed), 29.91 kg; in data set [2] (1.0 ppm ABA in feed) it was 30.30 kg. Further, the “Body Weight Gain (Average value)” value in data set [1] (0.1 ppm ABA in feed) is reported as 18.04 kg; in data set [1] (0.5 ppm ABA in feed) it was 18.25 kg; in data set [1] (1.0 ppm ABA in feed), 19.02 kg; in data set [2] (0.1 ppm ABA in feed), 16.99 kg; in data set [2] (0.5 ppm ABA in feed) it was 16.40 kg; in data set [2] (1.0 ppm ABA in feed), 17.00 kg.

These data come from US20230413860A1, “Abscisic Acid-Mixed Pig Feed” (Sumitomo Chemical Company, Limited, priority 2020, published 2023).
